From ChEMBL document CHEMBL1201862, “PubChem BioAssay data set” (2004)
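Exposure lasted 48 hours, with cells grown in 96-well plates and compounds tested at five concentrations. Abbreviation: GI50, concentration required for 50% inhibition of growth.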 The source made the active and inactive calls. Rule as the data show it: active = GI50 up to about 1.1 µM and inactive = higher.

Experiments:
Test in all cases: NCI tumour cell line growth inhibition, 48 h
OVCAR-3 = tested on: OVCAR-3
K562 = tested on: K562
HT-29 = tested on: HT-29
SF-539 = tested on: SF-539
A498 = tested on: A498
T47D = tested on: T47D
Malme-3M = tested on: Malme-3M
HCT-116 = tested on: HCT-116
OVCAR-8 = tested on: OVCAR-8
SNB-75 = tested on: SNB-75
MCF7 = tested on: MCF7
SK-MEL-28 = tested on: SK-MEL-28
ACHN = tested on: ACHN
OVCAR-4 = tested on: OVCAR-4
CAKI-1 = tested on: CAKI-1
KM12 = tested on: KM12
SK-MEL-5 = tested on: SK-MEL-5
SF-295 = tested on: SF-295
SK-OV-3 = tested on: SK-OV-3
UACC-62 = tested on: UACC-62

Structure (SMILES)	GI50 (OVCAR-3)	GI50 (K562)	GI50 (HT-29)	GI50 (SF-539)	GI50 (A498)	GI50 (T47D)	GI50 (Malme-3M)	GI50 (HCT-116)	GI50 (OVCAR-8)	GI50 (SNB-75)	GI50 (MCF7)	GI50 (SK-MEL-28)	GI50 (ACHN)	GI50 (OVCAR-4)	GI50 (CAKI-1)	GI50 (KM12)	GI50 (SK-MEL-5)	GI50 (SF-295)	GI50 (SK-OV-3)	GI50 (UACC-62)
COC(=O)c1ccc(Oc2nc3ccc(C(F)(F)F)cc3nc2-c2ccccc2)cc1	> 100 µM (inactive)	60.8 µM (inactive)	> 100 µM (inactive)	> 100 µM (inactive)	> 100 µM (inactive)	56.2 µM (inactive)	> 100 µM (inactive)	> 100 µM (inactive)	> 100 µM (inactive)	> 100 µM (inactive)	24.9 µM (inactive)	> 100 µM (inactive)	56.9 µM (inactive)	> 100 µM (inactive)	> 100 µM (inactive)	> 100 µM (inactive)	> 100 µM (inactive)	> 100 µM (inactive)	> 100 µM (inactive)	> 100 µM (inactive)
CC(CCC=O)CCOCc1ccccc1 (stereo not given)	> 88.5 µM (inactive)	> 63.5 µM (inactive)	> 100 µM (inactive)	> 100 µM (inactive)	> 100 µM (inactive)	> 100 µM (inactive)	> 100 µM (inactive)	> 95.9 µM (inactive)	98.4 µM (inactive)	> 100 µM (inactive)	2.8 µM (inactive)	> 100 µM (inactive)	> 100 µM (inactive)	> 77.8 µM (inactive)	36.8 µM (inactive)	> 57.1 µM (inactive)	37.4 µM (inactive)	> 100 µM (inactive)	> 100 µM (inactive)	> 100 µM (inactive)
CC(=O)O[C@H]1C(=O)O[C@@H]2C[C@H]3C(C)=CC(=O)[C@@H](O)[C@]3(C)[C@H]3[C@@]4(O)OC[C@]32[C@@H]1[C@@H](C)[C@H]4O	0.0266 µM (active)	0.0266 µM (active)	0.0518 µM (active)	0.0246 µM (active)	0.103 µM (active)	0.0228 µM (active)	0.0232 µM (active)	0.0234 µM (active)	0.0444 µM (active)	0.0366 µM (active)	0.0294 µM (active)	0.0281 µM (active)	0.0317 µM (active)	0.0577 µM (active)	0.265 µM (active)	0.0318 µM (active)	0.0247 µM (active)	0.0535 µM (active)	0.524 µM (active)	0.0434 µM (active)
Cc1ccc(S(=O)(=O)Oc2coc(CO)cc2=O)cc1	15.3 µM (inactive)	6.04 µM (inactive)	12.4 µM (inactive)	20.2 µM (inactive)	15.5 µM (inactive)	13.3 µM (inactive)	16.2 µM (inactive)	4.25 µM (inactive)	17.6 µM (inactive)	14.2 µM (inactive)	4.7 µM (inactive)	17.3 µM (inactive)	18 µM (inactive)	15.1 µM (inactive)	4.42 µM (inactive)	4.86 µM (inactive)	13.5 µM (inactive)	16 µM (inactive)	17.1 µM (inactive)	11.9 µM (inactive)
Cc1ccnc2nc(-c3ccc(Cl)cc3)cc(O)c12	4.89 µM (inactive)	1.89 µM (inactive)	3.23 µM (inactive)	5.74 µM (inactive)	3.65 µM (inactive)	> 24.5 µM (inactive)	6.81 µM (inactive)	4.46 µM (inactive)	> 27 µM (inactive)	2.17 µM (inactive)	2.94 µM (inactive)	7.78 µM (inactive)	> 24.9 µM (inactive)	> 23.8 µM (inactive)	6.68 µM (inactive)	3.16 µM (inactive)	3.13 µM (inactive)	4.38 µM (inactive)	3.86 µM (inactive)	3.01 µM (inactive)
O=C1C2=C(c3ccccc31)C(c1ccccc1)N1C(=O)CSC1=N2 (stereo not given)	51.2 µM (inactive)	37.2 µM (inactive)	43.4 µM (inactive)	> 53.7 µM (inactive)	> 100 µM (inactive)	29.6 µM (inactive)	71.9 µM (inactive)	> 56.4 µM (inactive)	> 71.8 µM (inactive)	23.3 µM (inactive)	33.8 µM (inactive)	63.5 µM (inactive)	> 79.4 µM (inactive)	35.3 µM (inactive)	49.8 µM (inactive)	> 53.6 µM (inactive)	36.9 µM (inactive)	41.5 µM (inactive)	> 70.6 µM (inactive)	37.8 µM (inactive)
COc1ccc2nc(NC(=O)/C(C#N)=C/c3ccccc3)sc2c1	18.4 µM (inactive)	23.5 µM (inactive)	46.7 µM (inactive)	27.7 µM (inactive)	37.3 µM (inactive)	30.1 µM (inactive)	> 49 µM (inactive)	24.7 µM (inactive)	> 51.6 µM (inactive)	> 45.7 µM (inactive)	36.2 µM (inactive)	66.7 µM (inactive)	35.6 µM (inactive)	37.6 µM (inactive)	31 µM (inactive)	> 41.7 µM (inactive)	20.8 µM (inactive)	55.6 µM (inactive)	> 70.6 µM (inactive)	23.1 µM (inactive)
C[C@@H]1C[C@@]2(O[C@@H]2C)C(=O)O[C@@H]2CCN3CC=C(COC(=O)[C@]1(C)O)[C@H]23	> 100 µM (inactive)	> 100 µM (inactive)	> 100 µM (inactive)	> 100 µM (inactive)	> 100 µM (inactive)	> 100 µM (inactive)	> 100 µM (inactive)	> 100 µM (inactive)	> 100 µM (inactive)	> 100 µM (inactive)	> 100 µM (inactive)	> 100 µM (inactive)	> 100 µM (inactive)	> 100 µM (inactive)	> 100 µM (inactive)	> 100 µM (inactive)	> 100 µM (inactive)	> 100 µM (inactive)	> 100 µM (inactive)	> 100 µM (inactive)
COc1ccc2c(c1)CN([C@@H](C)[C@H]1CC[C@H]3[C@@H]4CC[C@H]5C[C@@H](O)CC[C@]5(C)[C@H]4CC[C@]13C)CO2	5.79 µM (inactive)	0.787 µM (active)	0.964 µM (active)	1.59 µM (inactive)	1.88 µM (inactive)	3.56 µM (inactive)	1.53 µM (inactive)	2.17 µM (inactive)	2.71 µM (inactive)	2.37 µM (inactive)	3.7 µM (inactive)	2.48 µM (inactive)	3.21 µM (inactive)	4.05 µM (inactive)	4.75 µM (inactive)	1.75 µM (inactive)	1.69 µM (inactive)	1.45 µM (inactive)	1.7 µM (inactive)	2 µM (inactive)
N#Cc1nc(CCC(C(=O)O)N2C(=O)c3ccccc3C2=O)oc1N (stereo not given)	> 100 µM (inactive)	> 100 µM (inactive)	> 100 µM (inactive)	> 100 µM (inactive)	> 100 µM (inactive)	> 100 µM (inactive)	> 100 µM (inactive)	> 10 µM (inactive)	> 100 µM (inactive)	> 100 µM (inactive)	> 100 µM (inactive)	> 100 µM (inactive)	> 100 µM (inactive)	> 100 µM (inactive)	> 100 µM (inactive)	> 100 µM (inactive)	> 100 µM (inactive)	> 100 µM (inactive)	> 100 µM (inactive)	> 100 µM (inactive)
